# Experimental data taken from PubChem BioAssay (NCI).
#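 Tested at 5 concentrations; 48 h exposure; 96-well plates; endpoints linearly interpolated, else capped at highest concentration. Here, GI50 denotes the concentration required for 50% inhibition of growth. TGI: concentration producing complete growth inhibition.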
# What was measured:
# Experiment in all cases: growth of human tumour cells (NCI), 48 h
# HT29 colon = system: HT29 colon
# HOP-62 NSCLC = system: HOP-62 NSCLC
# TK-10 renal = system: TK-10 renal
# NCI-H23 lung = system: NCI-H23 lung
# OVCAR-4 ovarian = system: OVCAR-4 ovarian
# K-562 leukemia = system: K-562 leukemia
# MDA-MB-435 = system: MDA-MB-435
# SF-539 CNS = system: SF-539 CNS
# HOP-92 NSCLC = system: HOP-92 NSCLC
# NCI-H226 lung = system: NCI-H226 lung
# MALME-3M melanoma = system: MALME-3M melanoma
# UACC-257 melanoma = system: UACC-257 melanoma
# SR leukemia = system: SR leukemia
# SN12C renal = system: SN12C renal
# LOX IMVI melanoma = system: LOX IMVI melanoma
# HS 578T breast = system: HS 578T breast
# ACHN renal = system: ACHN renal
# A498 renal = system: A498 renal
# IGROV1 ovarian = system: IGROV1 ovarian
# SNB-75 CNS = system: SNB-75 CNS
# PC-3 prostate = system: PC-3 prostate
# MDA-MB-468 breast = system: MDA-MB-468 breast
# DU-145 prostate = system: DU-145 prostate
# EKVX NSCLC = system: EKVX NSCLC
# U251 CNS = system: U251 CNS
# SNB-19 CNS = system: SNB-19 CNS
# SK-OV-3 ovarian = system: SK-OV-3 ovarian
# OVCAR-3 ovarian = system: OVCAR-3 ovarian
# RXF 393 renal = system: RXF 393 renal
compound,measurement,setting,value
O=C(Nc1ccc(OCc2ccccc2)cc1)Nc1ccc(Cl)c(C(F)(F)F)c1,GI50,HT29 colon,2.25 µM
same,TGI,HT29 colon,10.2 µM
same,GI50,HOP-62 NSCLC,2.11 µM
same,TGI,HOP-62 NSCLC,41.1 µM
same,GI50,TK-10 renal,2.4 µM
same,TGI,TK-10 renal,30.1 µM
same,GI50,NCI-H23 lung,1.5 µM
same,TGI,NCI-H23 lung,4.39 µM
same,GI50,OVCAR-4 ovarian,2.37 µM
same,TGI,OVCAR-4 ovarian,27 µM
same,GI50,K-562 leukemia,2.34 µM
same,TGI,K-562 leukemia,> 64.3 µM
same,GI50,MDA-MB-435,1.98 µM
same,TGI,MDA-MB-435,27.2 µM
same,GI50,SF-539 CNS,2.34 µM
same,TGI,SF-539 CNS,9.41 µM
same,GI50,HOP-92 NSCLC,1.34 µM
same,TGI,HOP-92 NSCLC,3.83 µM
same,GI50,NCI-H226 lung,2 µM
same,TGI,NCI-H226 lung,7.03 µM
same,GI50,MALME-3M melanoma,1.54 µM
same,TGI,MALME-3M melanoma,4.36 µM
same,GI50,UACC-257 melanoma,1.4 µM
same,TGI,UACC-257 melanoma,5.67 µM
same,GI50,SR leukemia,2.19 µM
same,TGI,SR leukemia,13.2 µM
same,GI50,SN12C renal,1.75 µM
same,TGI,SN12C renal,6.71 µM
same,GI50,LOX IMVI melanoma,2.02 µM
same,TGI,LOX IMVI melanoma,7.36 µM
same,GI50,HS 578T breast,1.9 µM
same,TGI,HS 578T breast,15.7 µM
same,GI50,ACHN renal,1.76 µM
same,TGI,ACHN renal,4.93 µM
same,GI50,A498 renal,1.24 µM
same,TGI,A498 renal,3.9 µM
same,GI50,IGROV1 ovarian,2.57 µM
same,TGI,IGROV1 ovarian,> 64.3 µM
same,GI50,SNB-75 CNS,1.79 µM
same,TGI,SNB-75 CNS,6.18 µM
same,GI50,PC-3 prostate,1.78 µM
same,TGI,PC-3 prostate,7.16 µM
same,GI50,MDA-MB-468 breast,1.42 µM
same,TGI,MDA-MB-468 breast,4.12 µM
same,GI50,DU-145 prostate,2.28 µM
same,TGI,DU-145 prostate,21.1 µM
same,GI50,EKVX NSCLC,1.91 µM
same,TGI,EKVX NSCLC,7.09 µM
same,GI50,U251 CNS,2 µM
same,TGI,U251 CNS,6.59 µM
same,GI50,SNB-19 CNS,2.01 µM
same,TGI,SNB-19 CNS,14.1 µM
same,GI50,SK-OV-3 ovarian,1.81 µM
same,TGI,SK-OV-3 ovarian,4.99 µM
same,GI50,OVCAR-3 ovarian,1.61 µM
same,TGI,OVCAR-3 ovarian,4.96 µM
same,GI50,RXF 393 renal,4.53 µM
same,TGI,RXF 393 renal,41.2 µM
